Test results reported in patent publication US4550186A, “Binuclear copper (II) carboxylates formed from amine-carboxyboranes” (Duke University, priority 1983, dated 1985).

How the values were obtained:
[1] = tested on: CF1 male mice on atherogenic diet; experiment: Testing in atherogenic mice; assay type: in vivo, mouse; settings: 12 days
Procedure: CF1 male mice (~25 g) were placed on a commercial diet (the U.S. Biochemical Corporation Basel Atherogenic Test Diet) which contained butterfat (400 g), celufil (cellulose; 60 g), cholesterol (53 g), choline dihydrogen citrate (4 g), salt mixture oil (Wesson; 40 g), sodium cholate (20 g), sucrose (223 g), vitamin free casein (200 g) and total vitamin supplement for 10 days. After the cholesterol and triglyceride levels were assayed and observed to be elevated, the mice were administered test drugs at 10 mg/kg/day intraperitoneally for an additional 12-day period. Serum cholesterol and triglyceride levels were measured after 12 days of administration of the drugs.

ribonucleotide reductase = target: T1, ribonucleotide reductase (Mus musculus, UniProt P07742+P11157); experiment: In vivo ribonucleotide reductase activity
T1 construct: endogenous in cells; host or cells: Ehrlich ascites tumor cells
T1 sequence (P07742 1-792): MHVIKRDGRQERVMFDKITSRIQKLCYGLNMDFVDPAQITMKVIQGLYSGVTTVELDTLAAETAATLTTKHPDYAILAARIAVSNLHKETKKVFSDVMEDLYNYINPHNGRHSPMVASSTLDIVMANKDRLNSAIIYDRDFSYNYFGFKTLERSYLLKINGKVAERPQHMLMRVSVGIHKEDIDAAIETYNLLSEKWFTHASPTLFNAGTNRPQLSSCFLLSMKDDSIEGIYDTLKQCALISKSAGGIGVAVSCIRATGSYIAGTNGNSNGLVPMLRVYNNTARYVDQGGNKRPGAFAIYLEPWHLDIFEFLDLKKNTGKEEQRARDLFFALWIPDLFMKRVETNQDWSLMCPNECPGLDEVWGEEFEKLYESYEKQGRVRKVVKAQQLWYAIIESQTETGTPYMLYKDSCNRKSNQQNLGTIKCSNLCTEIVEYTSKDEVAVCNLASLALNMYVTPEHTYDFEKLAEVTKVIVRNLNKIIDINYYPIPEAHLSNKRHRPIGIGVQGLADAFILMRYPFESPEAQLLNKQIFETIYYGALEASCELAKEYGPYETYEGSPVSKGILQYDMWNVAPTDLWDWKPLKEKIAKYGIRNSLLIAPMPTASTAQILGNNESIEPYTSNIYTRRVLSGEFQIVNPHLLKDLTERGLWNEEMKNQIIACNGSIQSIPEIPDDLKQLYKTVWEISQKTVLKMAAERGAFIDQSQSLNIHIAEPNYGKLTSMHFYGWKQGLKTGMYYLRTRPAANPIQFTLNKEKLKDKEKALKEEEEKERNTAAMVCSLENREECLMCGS
T1 sequence (P11157 1-390): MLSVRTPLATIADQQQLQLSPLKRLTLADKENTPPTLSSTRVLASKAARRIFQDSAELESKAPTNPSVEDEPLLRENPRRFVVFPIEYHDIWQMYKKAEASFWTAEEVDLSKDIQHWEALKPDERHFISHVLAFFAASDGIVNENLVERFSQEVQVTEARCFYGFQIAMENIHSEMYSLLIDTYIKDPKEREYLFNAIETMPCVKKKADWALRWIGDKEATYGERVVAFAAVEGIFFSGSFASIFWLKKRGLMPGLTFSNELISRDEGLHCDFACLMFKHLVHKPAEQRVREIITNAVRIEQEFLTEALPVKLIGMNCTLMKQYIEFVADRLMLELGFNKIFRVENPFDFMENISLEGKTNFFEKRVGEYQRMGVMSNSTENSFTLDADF
Procedure: CF1 male mice (~30 g) were implanted with 2×10^6 Ehrlich ascites tumor cells, intraperitoneally on Day 0. Compound I was suspended by homogenation in 0.05% polysorbate.80-water and administered intraperitoneally at 10 and 20 mg/kg for 9 days to determine its effectiveness for inhibition of tumor growth. Mice were sacrificed on Day 10, and the ascites fluid was collected from the peritoneal cavity. The volume and ascrit (packed cell volume) were determined for each animal and the percent inhibition of tumor growth was calculated. For the metabolic studies, mice were treated on Days 8 and 9 with 10 mg/kg of Compound I, intraperitoneally. […]
Carbamyl phosphate synthetase activity was determined using the reaction medium of Kalman et al [Am. […] Citrulline formed from ornithine was measured at 490 nm by the method of Archibald [J. Biol. Chem., 156, 121 (1944)]. […] The ^14 CO2 generated in 15 min was trapped in 1M KOH and counted. Thymidylate synthetase activity was determined using a post-mitochondrial supernatant (9000 g×10 min) and 5 μCi of 5-^3 H-deoxyuridine monophosphate (14 Ci/mmol) according to the method of Kampf et al [ J. Med. Chem., 19, 903 (1976)]. ^14 C-Formate incorporation into purines was determined by the method of Spassova et al [Biochem. Pharmacol., 25, 923 (1976)] using 0.5 μCi of ^14 C-formic acid (52.0 mCi/mmol). […] The Rf value for xanthine monophosphate was scraped and counted. […]

Substance: {Cu[(CH3)3 N.BH2 CO2 ]2.(CH3)3 N.BH2 COOH} [Compound I]
- serum cholesterol level after drug administration ([1]; hyperlipidemic induced mice (354 mg % before)): 148 mg %
- serum cholesterol levels reduced ([1]; hyperlipidemic induced mice, 10 mg/kg/day i.p.): 59%
- serum triglyceride levels lowered ([1]; hyperlipidemic mice, 10 mg/kg/day i.p.): 67%
- Ribonucleotide reductase activity (ribonucleotide reductase): unaffected
- Riboncleotide reductase activity (ribonucleotide reductase; 10 mg/kg/day I.P. on Days 8 and 9): 101 ± 8 % Control
